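Cells were grown in 96-well plates and exposed to each compound for 48 hours at five concentrations; endpoints were interpolated linearly between bracketing concentrations, or set to the highest concentration if not reached. GI50 is the concentration that inhibits growth by half.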 Activity calls are given as the source filed them. No stated cut-off is given here; in the data, active = GI50 up to about 1.1 µM and inactive = higher.
Key:
Assay in all cases: NCI tumour cell line growth inhibition, 48 h
[1] = system: KM-20L2
[2] = system: XF498
[3] = system: DMS-273
[4] = system: LXFL 529
[5] = system: DMS-114
[6] = system: M19-MEL
[7] = system: HOP-18
[8] = system: SNB-78
[9] = system: RXF 631

| Structure (SMILES) | GI50 [1] | GI50 [2] | GI50 [3] | GI50 [4] | GI50 [5] | GI50 [6] | GI50 [7] | GI50 [8] | GI50 [9] |
| --- | --- | --- | --- | --- | --- | --- | --- | --- | --- |
| CN(C)Cc1[nH]c2ccccc2c1C(=O)c1ccccc1 | 64.9 µM (inactive) | 97.9 µM (inactive) | > 100 µM (inactive) | > 100 µM (inactive) |  |  |  |  |  |
| CC1=NN(C(=O)Cc2ccccc2)C(=O)/C1=C\c1cccc(O)c1 |  | > 100 µM (inactive) | > 100 µM (inactive) |  | > 100 µM (inactive) | > 100 µM (inactive) | > 100 µM (inactive) | > 100 µM (inactive) |  |
| Cc1cc(Cl)ccc1N1C(=O)C(=O)C(c2nc3ccccc3s2)C(=O)C1=O | > 100 µM (inactive) | > 100 µM (inactive) | > 100 µM (inactive) | > 100 µM (inactive) | > 100 µM (inactive) |  | > 100 µM (inactive) | > 100 µM (inactive) | > 100 µM (inactive) |
| COc1ccc(/C=C2\C(=O)N(C(=O)c3ccc(NC(C)=O)cc3)N=C2C)cc1 |  | > 100 µM (inactive) | > 100 µM (inactive) |  | > 100 µM (inactive) | > 100 µM (inactive) | > 100 µM (inactive) | > 100 µM (inactive) |  |
| Cn1c(=O)c(C(=O)NC(=O)OCc2ccccc2)cn(CCSCCOC(=O)NCCCCCCNC(=O)OCCSCCn2cc(C(=O)NC(=O)OCc3ccccc3)c(=O)n(C)c2=O)c1=O | > 100 µM (inactive) | 16.9 µM (inactive) | > 100 µM (inactive) | > 100 µM (inactive) | 78 µM (inactive) | > 100 µM (inactive) |  | > 100 µM (inactive) | > 100 µM (inactive) |
| Cn1nc(-c2ccccc2)c2c(/C=C/c3ccc(Cl)cc3)onc2c1=O | 19.1 µM (inactive) | 10.5 µM (inactive) | > 100 µM (inactive) | 39.9 µM (inactive) | > 100 µM (inactive) | 89.9 µM (inactive) | 9.84 µM (inactive) |  | > 100 µM (inactive) |
| CSc1nc(NC2OC(COC(C)=O)C(OC(C)=O)C(OC(C)=O)C2OC(C)=O)c2c(OC(C)=O)c(C)c(=O)oc2n1 (stereo unspecified) | > 100 µM (inactive) | > 100 µM (inactive) |  | > 100 µM (inactive) | > 100 µM (inactive) | > 100 µM (inactive) | > 100 µM (inactive) | > 100 µM (inactive) |  |
| CC1(Br)C(=O)NC(=O)N([C@H]2C[C@H](O)[C@@H](CO)O2)C1N=[N+]=[N-] (stereo partly specified) | > 100 µM (inactive) | > 100 µM (inactive) | > 100 µM (inactive) | > 100 µM (inactive) | > 91.2 µM (inactive) | > 100 µM (inactive) | > 100 µM (inactive) | > 100 µM (inactive) | > 100 µM (inactive) |
| C/C(=N\NC(=O)CC(=O)N(C(=O)c1ccc(Cl)cc1)c1ccc(C)cc1)c1ccccc1O | 18 µM (inactive) | > 100 µM (inactive) | 31.7 µM (inactive) | > 100 µM (inactive) | 97.1 µM (inactive) | > 100 µM (inactive) |  | 57.3 µM (inactive) | > 100 µM (inactive) |
| NC1=NN(c2ccccc2)C(=O)C1C(=O)C(=O)NC1C2CC3CC(C2)CC1C3 (stereo unspecified) | > 100 µM (inactive) |  | > 100 µM (inactive) | 66.1 µM (inactive) | > 100 µM (inactive) | > 100 µM (inactive) | > 100 µM (inactive) | > 100 µM (inactive) | > 100 µM (inactive) |
| O=C(NO)c1ccc([N+](=O)[O-])cc1 | 62.2 µM (inactive) | 73.1 µM (inactive) | 43.8 µM (inactive) | 25.1 µM (inactive) | 30.7 µM (inactive) | 52.2 µM (inactive) |  |  |  |
| O=[PH](O)c1cccnc1 | > 100 µM (inactive) | > 100 µM (inactive) | > 100 µM (inactive) | > 100 µM (inactive) | > 100 µM (inactive) | > 100 µM (inactive) |  | > 100 µM (inactive) | > 100 µM (inactive) |
| COC(=O)C12OCC34C(CC5C(C)C6=CC(=O)OC6=CC5(C)C3C(O)C1O)OC(=O)C(OC(C)=O)C24 (stereo unspecified) | 17 µM (inactive) | 12.2 µM (inactive) | 14.4 µM (inactive) | 14.6 µM (inactive) | 12.3 µM (inactive) | 15.4 µM (inactive) | 14.2 µM (inactive) | 11.6 µM (inactive) | 16.8 µM (inactive) |
| Cc1ccc(N2C(=O)C(Cl)=C(Cl)C2=O)cc1 | 24.2 µM (inactive) |  | 62.5 µM (inactive) | 19.1 µM (inactive) | 19 µM (inactive) | 21 µM (inactive) | 19 µM (inactive) | 24.2 µM (inactive) | 21.1 µM (inactive) |
| CN1CC[C@]2(C)c3c(O)cccc3CC3CCCC1C32C (stereo partly specified) | > 100 µM (inactive) | 59.6 µM (inactive) |  | > 100 µM (inactive) | > 100 µM (inactive) | > 100 µM (inactive) | 54.1 µM (inactive) | > 100 µM (inactive) | > 100 µM (inactive) |
| O=c1c(-c2ccccc2)c2oc(c1-c1ccccc1)CS(=O)(=O)CCC2 |  | 5.97 µM (inactive) | 22.5 µM (inactive) | 17.7 µM (inactive) | 39.5 µM (inactive) | 17 µM (inactive) | < 0.01 µM (active) |  |  |
| COc1cc(/C=C(\NC(=O)c2ccccc2)c2nc3ccc4c(c3[nH]2)C(=O)c2ccccc2C4=O)cc(OC)c1OC | > 100 µM (inactive) | > 100 µM (inactive) | 40.7 µM (inactive) | 49 µM (inactive) | 32.4 µM (inactive) | > 100 µM (inactive) |  | 76.7 µM (inactive) | 58.7 µM (inactive) |
| COc1cc(C(C)O)c[n+](CCc2c[nH]c3ccccc23)c1 (stereo unspecified) | 56.9 µM (inactive) | > 100 µM (inactive) | > 100 µM (inactive) | > 100 µM (inactive) | > 100 µM (inactive) | > 100 µM (inactive) |  |  | > 100 µM (inactive) |
| O=P1(N(CCCl)CCCl)NCCCO1 (stereo unspecified) [CYCLOPHOSPHAMIDE ANHYDROUS] | > 250 µM (inactive) | 177 µM (inactive) | > 246 µM (inactive) | > 250 µM (inactive) | > 250 µM (inactive) | 218 µM (inactive) | 121 µM (inactive) | > 209 µM (inactive) | > 250 µM (inactive) |
